In patent US20100098632A1, “HYDROXYAPATITE PARTICLES” (priority 2006, published 2010):

Columns and labels:
[1] = In vivo biodistribution of Sm-HAP by gamma camera / microSPECT-CT imaging; conditions: mice, intravenous, 200 μCi for Sm-HAP
Method: FIG. 1 contains photographs of the distribution of Sm-HAP uptake in mice. […] The mouse was injected intravenously with Sm-153 HA nanoparticles synthesized at 50° C. Imaging was performed 2 hours post injection.
FIG. 2 contains a photograph of the distribution of Sm-153 EDTMP determined via non-invasive imaging using a small animal gamma camera (X-SPECT).
To determine the in vivo biodistribution of Sm-HAP, 200 μCi of Sm-HAP were administered intravenously to mice in 150 to 200 μL. The mice were imaged non-invasively using a microSPECT/CT machine.

[2] = test system: Hep3B/Fluc; test: Mouse liver cancer model, bioluminescent tumor imaging; format: in vivo, Nude mice; conditions: intrahepatic Hep3B/Fluc, treatment day seven, intravenous
Method: Experiments were performed to evaluate Sm-153-hydroxyapatite particles (Sm-HAP) alone or in combination with PS-341, a radiosensitizer drug, in a mouse liver cancer model. Nude mice were injected intrahepatically with Hep3B/Fluc, a human hepatocellular carcinoma cell line expressing Firefly luciferase. Tumor growth was determined using a Xenogen Bioluminescent IVIS 200 Imaging System. On day seven after tumor implantation, mice were injected intravenously via the tail vein with 200 μg HAP, 0.5 mCi free Sm-153-EDTMP, 0.5 mCi Sm-HAP alone, or 0.5 mCi Sm-HAP in combination with two intraperitoneal doses of 0.5 mg/kg PS-341, the first administered one day prior to Sm-HAP administration and the second administered one day after Sm-HAP administration. […] In contrast, tumors in mice treated with the combination therapy (Sm-HAP and two doses of PS-341) regressed, as evidenced by a decrease in the signal (FIG. 7).

[3] = Labeling of preformed hydroxyapatite particles by incubation with Sm-153-EDTMP; format: physicochemical; conditions: 1 mg particles with 200 μCi for up to 2 hours at room temperature
Method: The unlabeled, hydroxyapatite particles were incubated with Sm-153-EDTMP. Briefly, 1 mg of hydroxyapatite particles was incubated with 200 μCi of Sm-153-EDTMP for up to 2 hours at room temperature (25° C.). The resulting hydroxyapatite particles were spun down and resuspended in 10 mM Tris buffer pH 7.2. The amount of Sm-153 radioactivity in the hydroxyapatite particles was determined and found to be negligible.

[4] = Clodronate loading on hydroxyapatite particles; format: physicochemical; conditions: for binding (loading) efficiency of clodronate to HA: 20 mg clodronate per 1 mg particles, disodium salt
Method: Clodronate (dichloromethylenediphosphonic acid disodium salt; Sigma, St. Louis, Mo.) was dissolved in distilled water (200 mg/mL) and 20 mg was added to 1 mg of hydroxyapatite particles. The mixture was incubated for 30 minutes. After hydroxyapatite particle binding, free clodronate in the supernatant was complexed with copper (II) ions (Cu^2) in nitric acid solution and the concentration was assayed by ultraviolet spectrophotometry as described elsewhere (Ostovic et al., Pharm Res., 10:470-472 (1993)). The amount of clodronate bound to hydroxyapatite particles was calculated by subtracting free clodronate from input clodronate.
The feasibility of utilizing the HA-biphosphonate interaction for drug loading onto the particles also was tested. Twenty milligrams of clodronate, a biphosphonate, was mixed with 1 mg of hydroxyapatite particles (40 nm in size) in 10 mM Tris-Cl buffer (pH 7.2), and the mixture was incubated with continuous shaking at room temperature for 30 minutes. Clodronate could be loaded onto hydroxyapatite particles at 10% efficiency (2 mg clodronate/mg HAP; n=3). […] The clodronate that was loaded on hydroxyapatite particles remained biologically active.

O=P([O-])(O)CN(CCN(CP(=O)([O-])O)CP(=O)(O)O)CP(=O)([O-])O.[153Sm+3] [Sm-153-EDTMP]
in vivo biodistribution (uptake sites by imaging) [1]: binds to the skeleton of the mouse
tumor course by bioluminescent signal [2]: progressed
amount of Sm-153 radioactivity in the hydroxyapatite particles [3]: negligible

O=P([O-])([O-])C(Cl)(Cl)P(=O)(O)O.[Na+].[Na+] [clodronate, dichloromethylenediphosphonic acid disodium salt]
final concentration of clodronate on HA ([4]; 40 nm HA): 2 mg clodronate/mg HA
binding (loading) efficiency of clodronate to HA ([4]; 40 nm HA): 10%
binding (loading) efficiency of clodronate to HA ([4]; 40 nm HA, listed as clondronate): about 10%
clodronate loaded per mg particles ([4]; 40 nm, 10 mM Tris-Cl pH 7.2, 30 minutes, n=3): 2 mg clodronate/mg HAP
